# Data reported in PubChem BioAssay (NCI).
#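 Briefly, cells in 96-well plates were exposed to five compound concentrations for 48 h, and endpoints were estimated by linear interpolation. GI50: concentration for 50% inhibition of growth. Definition used: TGI = concentration required for complete inhibition of growth.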
# Legend:
# Test in all cases: growth of human tumour cells (NCI), 48 h
# [1] = test system: SW-620 colon
# [2] = test system: T-47D breast
# [3] = test system: NCI-H522 lung
# [4] = test system: KM12 colon
# [5] = test system: SF-295 CNS
# [6] = test system: TK-10 renal
# [7] = test system: BT-549 breast
# [8] = test system: SK-MEL-5 melanoma
# [9] = test system: PC-3 prostate
# [10] = test system: EKVX NSCLC
# [11] = test system: LOX IMVI melanoma
# [12] = test system: MOLT-4 leukemia
# [13] = test system: UACC-257 melanoma
# [14] = test system: SNB-19 CNS
# [15] = test system: UO-31 renal
# [16] = test system: A549 NSCLC
# [17] = test system: RXF 393 renal
# [18] = test system: MDA-MB-435
# [19] = test system: SK-OV-3 ovarian
# [20] = test system: CAKI-1 renal
# [21] = test system: SNB-75 CNS
# [22] = test system: NCI-H226 lung
# [23] = test system: IGROV1 ovarian
# [24] = test system: ACHN renal
# [25] = test system: NCI-H460 lung
# [26] = test system: MALME-3M melanoma
# [27] = test system: SN12C renal
# [28] = test system: HS 578T breast
# [29] = test system: A498 renal
# [30] = test system: MDA-MB-231 breast
# [31] = test system: UACC-62 melanoma
# [32] = test system: HCC-2998 colon
# [33] = test system: HOP-92 NSCLC
# [34] = test system: COLO 205 colon
# [35] = test system: SF-539 CNS
# [36] = test system: HCT-15 colon
# [37] = test system: OVCAR-8 ovarian
# [38] = test system: HOP-62 NSCLC
# [39] = test system: OVCAR-5 ovarian
# [40] = test system: U251 CNS
# [41] = test system: K-562 leukemia
# [42] = test system: SR leukemia
# [43] = test system: MCF7 breast
# [44] = test system: HL-60(TB) leukemia
# [45] = test system: RPMI-8226 leukemia
# [46] = test system: SF-268 CNS
# [47] = test system: M14 melanoma
# [48] = test system: OVCAR-4 ovarian
# [49] = test system: OVCAR-3 ovarian
# [50] = test system: 786-0 renal
# [51] = test system: SK-MEL-2 melanoma
# [52] = test system: SK-MEL-28 melanoma
# [53] = test system: HCT-116 colon
# [54] = test system: NCI/ADR-RES ovarian
# [55] = test system: DU-145 prostate
# [56] = test system: HT29 colon
# [57] = test system: NCI-H23 lung
# [58] = test system: CCRF-CEM leukemia
compound,measurement,setting,value
COc1cnc2c(c1)C(=O)c1c-2n(CCCn2ccnc2)c(=O)c2cc(OC)c(OC)cc12,GI50,[1],127 nM
same,TGI,[1],2130 nM
same,GI50,[2],41.1 nM
same,TGI,[2],1900 nM
same,GI50,[3],80.3 nM
same,TGI,[3],1610 nM
same,GI50,[4],1670 nM
same,TGI,[4],7690 nM
same,GI50,[5],38.1 nM
same,TGI,[5],1410 nM
same,GI50,[6],2940 nM
same,TGI,[6],8090 nM
same,GI50,[7],416 nM
same,TGI,[7],6620 nM
same,GI50,[8],258 nM
same,TGI,[8],1480 nM
same,GI50,[9],631 nM
same,TGI,[9],8450 nM
same,GI50,[10],1680 nM
same,TGI,[10],7240 nM
same,GI50,[11],42.2 nM
same,TGI,[11],1120 nM
same,GI50,[12],36.7 nM
same,TGI,[12],2530 nM
same,GI50,[13],627 nM
same,TGI,[13],2780 nM
same,GI50,[14],68 nM
same,TGI,[14],13300 nM
same,GI50,[15],65.9 nM
same,TGI,[15],1370 nM
same,GI50,[16],465 nM
same,TGI,[16],11700 nM
same,GI50,[17],354 nM
same,TGI,[17],2190 nM
same,GI50,[18],710 nM
same,TGI,[18],4790 nM
same,GI50,[19],119 nM
same,TGI,[19],2270 nM
same,GI50,[20],39.1 nM
same,TGI,[20],3410 nM
same,GI50,[21],67.3 nM
same,TGI,[21],1210 nM
same,GI50,[22],190 nM
same,TGI,[22],5000 nM
same,GI50,[23],1240 nM
same,TGI,[23],6210 nM
same,GI50,[24],37.6 nM
same,TGI,[24],1090 nM
same,GI50,[25],36.5 nM
same,TGI,[25],1320 nM
same,GI50,[26],1390 nM
same,TGI,[26],3040 nM
same,GI50,[27],56.3 nM
same,TGI,[27],4020 nM
same,GI50,[28],4770 nM
same,TGI,[28],17500 nM
same,GI50,[29],9440 nM
same,TGI,[29],23300 nM
same,GI50,[30],3550 nM
same,TGI,[30],11900 nM
same,GI50,[31],40.1 nM
same,TGI,[31],1470 nM
same,GI50,[32],899 nM
same,TGI,[32],3060 nM
same,GI50,[33],935 nM
same,TGI,[33],10800 nM
same,GI50,[34],654 nM
same,TGI,[34],2380 nM
same,GI50,[35],52.7 nM
same,TGI,[35],889 nM
same,GI50,[36],1210 nM
same,TGI,[36],3140 nM
same,GI50,[37],419 nM
same,TGI,[37],2950 nM
same,GI50,[38],41.9 nM
same,TGI,[38],1300 nM
same,GI50,[39],1030 nM
same,TGI,[39],3100 nM
same,GI50,[40],48.1 nM
same,TGI,[40],3280 nM
same,GI50,[41],85.2 nM
same,TGI,[41],5860 nM
same,GI50,[42],20.4 nM
same,TGI,[42],6640 nM
same,GI50,[43],29.8 nM
same,TGI,[43],1400 nM
same,GI50,[44],45 nM
same,TGI,[44],3670 nM
same,GI50,[45],167 nM
same,TGI,[45],3580 nM
same,GI50,[46],72.9 nM
same,TGI,[46],14100 nM
same,GI50,[47],60 nM
same,TGI,[47],1410 nM
same,GI50,[48],1540 nM
same,TGI,[48],3530 nM
same,GI50,[49],594 nM
same,TGI,[49],2010 nM
same,GI50,[50],55.1 nM
same,TGI,[50],1280 nM
same,GI50,[51],17300 nM
same,TGI,[51],31500 nM
same,GI50,[52],1310 nM
same,TGI,[52],3610 nM
same,GI50,[53],113 nM
same,TGI,[53],1710 nM
same,GI50,[54],361 nM
same,TGI,[54],4410 nM
same,GI50,[55],60.8 nM
same,TGI,[55],1900 nM
same,GI50,[56],242 nM
same,TGI,[56],1750 nM
same,GI50,[57],72.1 nM
same,TGI,[57],1620 nM
same,GI50,[58],35.3 nM
same,TGI,[58],4470 nM
